Where no end group is shown, it is not given here.
What was measured:
Balb C splenocytes = test: Mitogen assay (^3H-thymidine uptake), murine splenocytes; type: cell-based; settings: for Cpm, standard mitogen assay: 0.1 μg/ml PT
[1] = Stability of PT (temperature, proteases); type: physicochemical
IL-2 = test: ELISA of IL-2 production by splenocytes; type: cell-based; settings: Balb C murine spleen cells, 0.05 μg/ml PT, 48 hours
Description: Identical plates are set up for an immunoassay and a mitogen assay. Mouse splenocytes and immuno-stimulating drugs are plated in duplicate wells (immunoassay) and triplicate wells (mitogen assay) in 96-well microplates as described above. […] At the end of the activation/proliferation period, the two identical plates are harvested as an immunoassay for cytokines or harvested as a mitogen assay (to which ^3H-thymidine has been added approximately 16-18 hours earlier).
Immunoassay kits used to detect IL-1β, IL-2, and IL-12 were the murine Quantikine M™ kits produced by R&D Systems (Minneapolis, Minn.). The general procedure is the same for all interleukin cytokines, and is described in the instructions provided by the manufacturer. […]
(§1) One hundred microliters of Substrate Solution are added to each well and incubated 30 minutes at room temperature. […] The plate is read for absorbence at 450 nm and at 540 nm for background readings.
(§2) To calculate the results, the duplicate readings for each pair of standard, control, and test samples are averaged and the average background optical density readings are subtracted. […] Picograms of cytokine are determined from the standard curve. Mitogenic activity determined from the cpm of ^3H-thymidine is compared to the concentrations of cytokine in the experimental samples in the corresponding immunoassay. […]

[2] = tested on: B16F10 melanoma tumor cells; test: In vivo inhibition of B16F10 melanoma tumor development; design: species or system C57BL/6NCr female mice
Description: C57BL/6NCr female mice (20 g), approximately 50 days old, were shaved in the abdominal area, ear notched for identification, and, two or three days prior to receiving tumor cells, pre-injected subcutaneously with the immunostimulating drugs described.
On “day zero,” B16F10 melanoma tumor cells, cultured in αMEM medium with 10% FBS, were injected intradermally (10^5 cells in 0.1 ml) in the center of the mouse abdomen using a 26 gauge ½ inch needle. Four to five hours later, the drug treatment (as specified) was injected intradermally in a different area of the abdomen than the site of the tumor injection.
Intradermal treatments using the immunostimulatory drug (as specified) continued either every other day or on a Monday-Wednesday-Friday injection schedule. Control tumors (in mice not receiving an immunostimulatory drug) usually formed within seven to ten days. Tumors were examined by visual inspection, measured (length by width), and the area of any resulting lesion was recorded as mm^2 every five days.
Mice were euthanized by CO2 inhalation if the tumor exceeded 500 mm^2. Some experiments were terminated early if all mice in the control group were dead, but the experiments were not less than 20 days. The normal duration of an experiment was about 30 days.
Pyrularia thionin, both alone and in combination with IL-2, was effective in preventing or retarding the development of melanoma tumors when C57BL/6NCr mice were pretreated before injection with B16F10 cells, which produce melanoma tumors.

IL-12 = test: ELISA of IL-12 production by splenocytes; type: cell-based, Balb C murine; settings: 48 hours, PT 0.05 μg/ml
Description: (§3) Identical plates are set up for an immunoassay and a mitogen assay. Mouse splenocytes and immuno-stimulating drugs are plated in duplicate wells (immunoassay) and triplicate wells (mitogen assay) in 96-well microplates as described above. The incubation at 37° C. in a humidified 5% CO2 incubator may vary from three to five days. At the end of the activation/proliferation period, the two identical plates are harvested as an immunoassay for cytokines or harvested as a mitogen assay (to which ^3H-thymidine has been added approximately 16-18 hours earlier).
(§4) Immunoassay kits used to detect IL-1β, IL-2, and IL-12 were the murine Quantikine M™ kits produced by R&D Systems (Minneapolis, Minn.). The general procedure is the same for all interleukin cytokines, and is described in the instructions provided by the manufacturer. All reagents are used at room temperature, and are prepared according to kit instructions.
(§5) The immunoassay plate is centrifuged at 200×g to pellet all cells. A 50 μl aliquot of Assay Diluent is first added to the center of each special enzyme-coated well supplied with the kit. Next, 50 μl of standard, control or test sample of supernatant from the immunoassay incubation plate is added to each well. This is incubated at room temperatures for two hours.
Liquid is aspirated from the wells, and the wells are washed five times with surfactant diluted 1:25 with distilled water. A 100 μL aliquot of Conjugate is added to each well and incubated two hours at room temperature. […]
as §1, §2

IL-1 = test: ELISA of IL-1 production by splenocytes; type: cell-based, Balb C murine; settings: 48 hours, PT 0.05 μg/ml
Description: as §3, §4, §5
Liquid is aspirated from the wells, and the wells are washed five times with surfactant diluted 1:25 with distilled water. A 100 μL aliquot of Conjugate is added to each well and incubated two hours at room temperature. The wells are again aspirated and each well washed five times.
One hundred microliters of Substrate Solution are added to each well and incubated 30 minutes at room temperature. Stop Solution (100 μl) is then added to each well. The color change is light blue to yellow (activity). The plate is read for absorbence at 450 nm and at 540 nm for background readings.
To calculate the results, the duplicate readings for each pair of standard, control, and test samples are averaged and the average background optical density readings are subtracted. A standard curve is constructed for the cytokine by plotting the mean absorbence for each standard on the y-axis against the concentration on the x-axis and drawing a best-fit curve. Picograms of cytokine are determined from the standard curve. Mitogenic activity determined from the cpm of ^3H-thymidine is compared to the concentrations of cytokine in the experimental samples in the corresponding immunoassay.
One measure of macrophage activation is the production of the cytokine interleukin-1 (IL-1) and also interleukin-12 (IL-12). Incubation of 3×10^5 Balb C murine spleen cells with 0.05 μg/ml PT was performed for 48 hours. The supernatant fluid was assayed with commercial ELISA kits for IL-1 and IL-12. […] Some experiments gave less […] and some more. This is likely a reflection of the state of the immune system in the experimental mice. The addition of KLH, an effective antigen, increased both IL-1 and IL-12 production, and the addition of PT along with the KLH further increased the production of these cytokines.

[3] = Toxic effect of PT on mice in vivo (LD50); design: species or system mouse

For “Pyrularia thionin (KSCCRNTWARNCYNVCRLPGTISREICAKKCDCKIISGTTCPSDYPK; ends and bridges not checked; also: labeled with 125I) [PT]”, the “stimulation of the mitogen reaction” value (Balb C splenocytes; 0.1 μg/ml (PT 20 nM; βME 40 nM)) was “modest”, the “Cpm, standard mitogen assay” value (Balb C splenocytes; GM-CSF (5 ng/ml)) was 822 Cpm and the “Cpm, standard mitogen assay” value (Balb C splenocytes; no GM-CSF) was 243 Cpm. For the same substance, the “interaction with cell membranes after exposure to temperature” value ([1]; 70° C.) was “not influenced”, the resistance to proteases ([1]; common proteases found in blood) was “resistant to the common proteases found in blood” and the “stimulation of production of IL-2” value (IL-2) was “not conclusive”. The “development of tumors compared to mice injected with saline” value ([2]; 3 μg PT (with or without 100 units murine IL-2) sc five and two days prior to B16 cells and three times weekly thereafter) was “slowed the development of tumors”, the “Average Tumor Size” value ([2]; B16 melanoma in C57 mice, sc 3 μg PT, 100 units IL-2, 20-31 days) was 191 mm^2 and the “Number of Deaths” value ([2]; B16 melanoma in C57 mice, sc 3 μg PT, 100 units IL-2, total mice 12 (IL-2), 15 (PT), 24 (PT + IL-2)) was 1. The “Mice w/o Tumors” value ([2]; B16 melanoma in C57 mice, sc 3 μg PT, 100 units IL-2, total mice 12 (IL-2), 15 (PT), 24 (PT + IL-2), 20-31 days) was 1, the “remission of established tumors” value ([2]; B16 melanoma, Table 2 and FIG. 2) was “did not cause remission of established tumors” and the “PT dose giving the best response” value ([2]; PT injected along with IL-2, per mouse) was 3 µg. For the same substance, the “PT dose with little protection” value ([2]; per mouse, with IL-2) was > 5 µg, the IL-12 (IL-12; Experiment 1, KLH 10 μg/ml, control 1.5) was 5.6 ± 0.3 pg/mL and the IL-12 (IL-12; Experiment 2, control 21) was 24 ± 0.3 pg/mL. For the same substance, the IL-1 (IL-1; Experiment 1, KLH 10 μg/ml, control 3.9) was 6.0 ± 0.2 pg/mL, the IL-1 (IL-1; Experiment 3, control 2) was 2.4 ± 0 pg/mL and the IL-1 (IL-1; Experiment 4, KLH (20 mg/ml), control 9) was 14 ± 0.9 pg/mL. The LD50 ([3]; for a 20-gram mouse) was 30 µg, the “LD50 relative to the amount with maximal protective (immunostimulatory) effect” value ([3]; versus 3 μg PT) was “ten times greater” and the immunogenicity (Immunogenicity of PT) was “not immunogenic”.

Reference: patent publication US7572436B1, “Thionin as an antineoplastic and immunostimulant” (priority 2000, dated 2009)
